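Grown in 96-well plates, cells were treated for 48 hours with each compound at five concentrations. Insufficient inhibition: endpoint recorded as highest concentration tested. GI50 = concentration required for 50% inhibition of growth. At the TGI there is no net growth.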
What was measured:
Assay in all cases: NCI-60 cell line screen, 48 h
[1] = test system: U251 CNS
[2] = test system: OVCAR-8 ovarian
[3] = test system: RPMI-8226 leukemia
[4] = test system: RXF 393 renal
[5] = test system: UACC-62 melanoma
[6] = test system: HOP-92 NSCLC
[7] = test system: UACC-257 melanoma
[8] = test system: HS 578T breast
[9] = test system: SF-295 CNS
[10] = test system: OVCAR-3 ovarian
[11] = test system: MDA-MB-231 breast
[12] = test system: NCI-H226 lung
[13] = test system: SF-268 CNS
[14] = test system: 786-0 renal
[15] = test system: K-562 leukemia
[16] = test system: HCT-15 colon
[17] = test system: EKVX NSCLC
[18] = test system: SNB-19 CNS
[19] = test system: SNB-75 CNS
[20] = test system: HCC-2998 colon
[21] = test system: A549 NSCLC
[22] = test system: CCRF-CEM leukemia
[23] = test system: A498 renal
[24] = test system: SK-MEL-2 melanoma
[25] = test system: NCI-H460 lung
[26] = test system: SK-MEL-28 melanoma
[27] = test system: PC-3 prostate
[28] = test system: UO-31 renal
[29] = test system: HL-60(TB) leukemia
[30] = test system: SK-OV-3 ovarian
[31] = test system: HT29 colon
[32] = test system: OVCAR-4 ovarian
[33] = test system: TK-10 renal
[34] = test system: SW-620 colon
[35] = test system: MCF7 breast
[36] = test system: COLO 205 colon
[37] = test system: HCT-116 colon
[38] = test system: M14 melanoma
[39] = test system: T-47D breast
[40] = test system: SK-MEL-5 melanoma
[41] = test system: CAKI-1 renal
[42] = test system: DU-145 prostate
[43] = test system: KM12 colon
[44] = test system: IGROV1 ovarian
[45] = test system: NCI-H522 lung
[46] = test system: ACHN renal
[47] = test system: BT-549 breast
[48] = test system: SN12C renal
[49] = test system: OVCAR-5 ovarian
[50] = test system: MOLT-4 leukemia
[51] = test system: MDA-MB-435
[52] = test system: NCI-H23 lung
[53] = test system: SR leukemia
[54] = test system: SF-539 CNS
[55] = test system: LOX IMVI melanoma
[56] = test system: HOP-62 NSCLC
[57] = test system: NCI/ADR-RES ovarian

O=[N+]([O-])c1ccccc1/C=N\NC(=S)N/N=C/c1ccccc1[N+](=O)[O-]
GI50 [1]: 4.9 µM | TGI [1]: > 100 µM | GI50 [2]: 11.9 µM | TGI [2]: > 100 µM | GI50 [3]: 5.91 µM | TGI [3]: > 100 µM | GI50 [4]: 11.6 µM | TGI [4]: > 100 µM | GI50 [5]: 4.52 µM | TGI [5]: > 100 µM | GI50 [6]: 26.2 µM | TGI [6]: > 100 µM | GI50 [7]: 10.3 µM | TGI [7]: > 100 µM | GI50 [8]: 3.61 µM | TGI [8]: 33.6 µM | GI50 [9]: 1.87 µM | TGI [9]: 7.41 µM | GI50 [10]: 1.95 µM | TGI [10]: 4.72 µM | GI50 [11]: 37.8 µM | TGI [11]: > 100 µM | GI50 [12]: 75.4 µM | TGI [12]: > 100 µM | GI50 [13]: 5.73 µM | TGI [13]: > 100 µM | GI50 [14]: 38 µM | TGI [14]: > 100 µM | GI50 [15]: 3.43 µM | TGI [15]: > 100 µM | GI50 [16]: 3.76 µM | TGI [16]: > 100 µM | GI50 [17]: 8.11 µM | TGI [17]: > 100 µM | GI50 [18]: 6.71 µM | TGI [18]: > 100 µM | GI50 [19]: 2.21 µM | TGI [19]: 8.75 µM | GI50 [20]: 20 µM | TGI [20]: > 100 µM | GI50 [21]: 8.92 µM | TGI [21]: > 100 µM | GI50 [22]: 4.19 µM | TGI [22]: > 100 µM | GI50 [23]: 2.49 µM | TGI [23]: 28.4 µM | GI50 [24]: 6.41 µM | TGI [24]: > 100 µM | GI50 [25]: 3.64 µM | TGI [25]: > 100 µM | GI50 [26]: 8.44 µM | TGI [26]: > 100 µM | GI50 [27]: 10 µM | TGI [27]: > 100 µM | GI50 [28]: 5.66 µM | TGI [28]: 87.3 µM | GI50 [29]: 3.59 µM | TGI [29]: > 100 µM | GI50 [30]: 6.07 µM | TGI [30]: > 100 µM | GI50 [31]: 4.04 µM | TGI [31]: > 100 µM | GI50 [32]: 20.6 µM | TGI [32]: > 100 µM | GI50 [33]: 13.7 µM | TGI [33]: > 100 µM | GI50 [34]: 4.29 µM | TGI [34]: > 100 µM | GI50 [35]: 3.12 µM | TGI [35]: > 100 µM | GI50 [36]: 11.3 µM | TGI [36]: > 100 µM | GI50 [37]: 3.78 µM | TGI [37]: > 100 µM | GI50 [38]: 3.76 µM | TGI [38]: > 100 µM | GI50 [39]: 4.93 µM | TGI [39]: > 100 µM | GI50 [40]: 4.21 µM | TGI [40]: > 100 µM | GI50 [41]: 3.46 µM | TGI [41]: > 100 µM | GI50 [42]: 5.34 µM | TGI [42]: 38.2 µM | GI50 [43]: 2.55 µM | TGI [43]: > 100 µM | GI50 [44]: 3.67 µM | TGI [44]: > 100 µM | GI50 [45]: 2.15 µM | TGI [45]: 21.7 µM | GI50 [46]: 7.53 µM | TGI [46]: > 100 µM | GI50 [47]: 39.6 µM | TGI [47]: > 100 µM | GI50 [48]: 10.6 µM | TGI [48]: > 100 µM | GI50 [49]: 51 µM | TGI [49]: > 100 µM | GI50 [50]: 6.47 µM | TGI [50]: > 100 µM | GI50 [51]: 0.426 µM | TGI [51]: 3.62 µM | GI50 [52]: 10.8 µM | TGI [52]: > 100 µM | GI50 [53]: 2.87 µM | TGI [53]: > 100 µM | GI50 [54]: 4.17 µM | TGI [54]: 58.6 µM | GI50 [55]: 6.48 µM | TGI [55]: > 100 µM | GI50 [56]: 5.57 µM | TGI [56]: > 100 µM | GI50 [57]: 2.66 µM | TGI [57]: > 100 µM
